Drawing on US11254686B1 (Corvus Pharmaceuticals, Inc., priority 2017, dated 2022), this text covers Ratio and IC50 for 25 molecules.

The target of one assay is adenosine A2B receptor (Homo sapiens (Human), UniProt P29275). In words: Adenosine receptor activity assay (Table 1), A2B activity. Type of assay: biochemical. As to conditions: for Ratio: A2A activity to the A2B activity, A2A/A2B; for IC50: read-out: Ave A2B cAMP IC50.
The next assay deals with adenosine A2A receptor (Homo sapiens (Human), UniProt P29274). The assay can be described thus: Adenosine receptor activity assay (Table 1), A2A activity. The class given is biochemical. Particulars: read-out: Ave A2A cAMP IC50.
adenosine A2A receptor, sequence (P29274 whole entry): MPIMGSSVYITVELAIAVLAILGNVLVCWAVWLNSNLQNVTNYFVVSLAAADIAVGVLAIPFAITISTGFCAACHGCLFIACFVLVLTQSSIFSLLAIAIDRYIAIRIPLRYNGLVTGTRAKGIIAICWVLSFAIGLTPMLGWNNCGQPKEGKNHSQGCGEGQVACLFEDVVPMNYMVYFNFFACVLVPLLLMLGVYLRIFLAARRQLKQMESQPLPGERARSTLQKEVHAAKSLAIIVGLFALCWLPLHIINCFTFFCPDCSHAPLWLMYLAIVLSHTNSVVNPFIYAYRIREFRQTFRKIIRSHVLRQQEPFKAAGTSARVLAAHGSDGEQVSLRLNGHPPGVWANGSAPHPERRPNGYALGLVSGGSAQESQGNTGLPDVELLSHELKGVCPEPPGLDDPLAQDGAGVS

adenosine A2B receptor, sequence (P29275 whole entry): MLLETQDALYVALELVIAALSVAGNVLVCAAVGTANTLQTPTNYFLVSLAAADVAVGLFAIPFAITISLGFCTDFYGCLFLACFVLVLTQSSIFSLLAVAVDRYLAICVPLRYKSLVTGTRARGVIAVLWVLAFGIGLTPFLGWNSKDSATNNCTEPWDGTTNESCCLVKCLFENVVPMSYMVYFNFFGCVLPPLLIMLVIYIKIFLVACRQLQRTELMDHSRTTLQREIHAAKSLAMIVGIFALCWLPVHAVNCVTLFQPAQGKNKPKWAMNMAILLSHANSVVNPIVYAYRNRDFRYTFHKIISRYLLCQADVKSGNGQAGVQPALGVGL

On to `Cc1cc2nc(N[C@@H](C)c3cccnc3)nc(C(=O)N3CC(CNC(=O)OC(C)(C)C)C3)c2s1` [Example Z498, tert-Butyl (S)-((1-(6-methyl-2-((1-(pyridin-3-yl)ethyl)amino)thieno[3,2-d]pyrimidine-4-carbonyl)azetidin-3-yl)methyl)carbamate], for which the Ratio at adenosine A2B receptor is 5.78. Moreover, the IC50 on adenosine A2B receptor is 100 to 500 nM; on adenosine A2A receptor, > 500 nM.

Consider `Cc1cc2nc(N[C@@H](C)c3cccnc3)nc(C(=O)N3CC(CN)C3)c2s1` [Example Z499, (S)-(3-(Aminomethyl)azetidin-1-yl)(6-methyl-2-((1-(pyridin-3-yl)ethyl)amino)thieno[3,2-d]pyrimidin-4-yl)methanone], for which, on adenosine A2B receptor, the Ratio is reported as 13.99 and the IC50 is > 500 nM. In addition, the IC50 at adenosine A2A receptor is > 500 nM.

As for `Cc1cc2nc(N[C@@H](C)c3cccnc3)nc(C(=O)NCC[C@@H]3CCNC3)c2s1` [Example Z500, 6-Methyl-2-(((S)-1-(pyridin-3-yl)ethyl)amino)-N-(2-((S)-pyrrolidin-3-yl)ethyl)thieno[3,2-d]pyrimidine-4-carboxamide], the Ratio at adenosine A2B receptor was 12.75. Further, the IC50 at adenosine A2B receptor and at adenosine A2A receptor was > 500 nM throughout.

On to `Cc1cc2nc(N[C@@H](C)c3cccnc3)nc(C(=O)NCC[C@H]3CCNC3)c2s1` [Example Z501, 6-Methyl-2-(((S)-1-(pyridin-3-yl)ethyl)amino)-N-(2-((R)-pyrrolidin-3-yl)ethyl)thieno[3,2-d]pyrimidine-4-carboxamide], for which, at adenosine A2B receptor, the Ratio is reported as 8.68 and the IC50 is > 500 nM. In addition, the IC50 at adenosine A2A receptor is > 500 nM.

Consider `Cc1cc2nc(N[C@@H](C)c3cncc(F)c3)nc(C(=O)N3CC(CN(C)C)C3)c2s1` [Example Z502, (S)-(3-((Dimethylamino)methyl)azetidin-1-yl)(2-((1-(5-fluoropyridin-3-yl)ethyl)amino)-6-methylthieno[3,2-d]pyrimidin-4-yl)methanone], for which, on adenosine A2B receptor, the Ratio is recorded as 4.89 and the IC50 lay within 10 to 50 nM. Also, the IC50 on adenosine A2A receptor fell in the range of 50 to 100 nM.

Turning to `Cc1cc2nc(N[C@@H](C)c3cccnc3)nc(C(=O)N[C@H]3C[C@@H](O)C3)c2s1` [Example Z503, N-((1s,3R)-3-hydroxycyclobutyl)-6-methyl-2-(((S)-1-(pyridin-3-yl)ethyl)amino)thieno[3,2-d]pyrimidine-4-carboxamide], at adenosine A2B receptor, the Ratio was found to be 18.01 and the IC50 lay within 10 to 50 nM. Besides, the IC50 at adenosine A2A receptor was > 500 nM.

On to `Cc1cc2nc(N[C@@H](C)c3cccnc3)nc(C(=O)N3CC(CNC(=O)C(C)(C)C)C3)c2s1` [Example Z505, (S)—N-((1-(6-Methyl-2-((1-(pyridin-3-yl)ethyl)amino)thieno[3,2-d]pyrimidine-4-carbonyl)azetidin-3-yl)methyl)pivalamide], for which the IC50 on adenosine A2B receptor and on adenosine A2A receptor was 100 to 500 nM each time.

As to `COCC1CN(C(=O)c2nc(N[C@@H](C)c3ccccn3)nc3cc(C)sc23)C1` [Example Z514, (S)-(3-(Methoxymethyl)azetidin-1-yl)(6-methyl-2-((1-(pyridin-2-yl)ethyl)amino)thieno[3,2-d]pyrimidin-4-yl)methanone], at adenosine A2B receptor, the Ratio came to 5.47 and the IC50 is < 10 nM. Moreover, at adenosine A2A receptor, the IC50 lay within 10 to 50 nM.

`Cc1cc2nc(N[C@@H](C)c3cccnc3)nc(C(=O)N3CC(CN(C)C)C3)c2s1` [Example Z516, (S)-(3-((Dimethylamino)methyl)azetidin-1-yl)(6-methyl-2-((1-(pyridin-3-yl)ethyl)amino)thieno[3,2-d]pyrimidin-4-yl)methanone]: the Ratio on adenosine A2B receptor was found to be 8.08. Also, the IC50 at adenosine A2B receptor and on adenosine A2A receptor was > 500 nM each time.

Consider `Cc1cc2nc(N[C@@H](C)c3cncc(F)c3)nc(C(=O)NCCC3CN(C(=O)C(F)(F)F)C3)c2s1` [Example Z521, (S)-2-((1-(5-Fluoropyridin-3-yl)ethyl)amino)-6-methyl-N-(2-(1-(2,2,2-trifluoroacetyl)azetidin-3-yl)ethyl)thieno[3,2-d]pyrimidine-4-carboxamide], for which, on adenosine A2B receptor, the Ratio turned out to be 0.06 and the IC50 is > 500 nM. In addition, at adenosine A2A receptor, the IC50 is > 500 nM.

Turning to `C[C@H](Nc1nc(C(=O)N2CC(CN(C)C(=O)OC(C)(C)C)C2)c2sccc2n1)c1cncc(F)c1` [Example Z525, tert-Butyl (S)-((1-(2-((1-(5-Fluoropyridin-3-yl)ethyl)amino)thieno[3,2-d]pyrimidine-4-carbonyl)azetidin-3-yl)methyl)(methyl)carbamate], at adenosine A2B receptor, the Ratio was found to be 3.05. Moreover, the IC50 on adenosine A2B receptor lay in the range of 50 to 100 nM; on adenosine A2A receptor, 100 to 500 nM.

For `Cc1cc2nc(N[C@@H](C)c3ccccn3)nc(C(=O)N3CC(CNC(=O)C(C)(C)C)C3)c2s1` [Example Z527, (S)—N-((1-(6-Methyl-2-((1-(pyridin-2-yl)ethyl)amino)thieno[3,2-d]pyrimidine-4-carbonyl)azetidin-3-yl)methyl)pivalamide], on adenosine A2B receptor, the Ratio came to 7.31 and the IC50 lay within 50 to 100 nM. Further, on adenosine A2A receptor, the IC50 is > 500 nM.

On to `CC(=O)NC1CN(C(=O)c2nc(N[C@@H](C)c3ccccn3)nc3ccsc23)C1` [Example Z533, (S)—N-(1-(2-((1-(pyridin-2-yl)ethyl)amino)thieno[3,2-d]pyrimidine-4-carbonyl)azetidin-3-yl)acetamide], for which the IC50 on adenosine A2B receptor and at adenosine A2A receptor was 100 to 500 nM throughout.

As to `Cc1cc2nc(N[C@@H](C)c3cncc(F)c3)nc(C(=O)NCC3CCNCC3)c2s1` [Example Z534, (S)-2-((1-(5-Fluoropyridin-3-yl)ethyl)amino)-6-methyl-N-(piperidin-4-ylmethyl)thieno[3,2-d]pyrimidine-4-carboxamide], at adenosine A2B receptor, the Ratio was determined as 57.93 and the IC50 fell in the range of 50 to 100 nM. Further, on adenosine A2A receptor, the IC50 was > 500 nM.

As to `C[C@H](Nc1nc(C(=O)NCCN)c2sccc2n1)c1cncc(F)c1` [Example Z536, (S)—N-(2-Aminoethyl)-2-((1-(5-fluoropyridin-3-yl)ethyl)amino)thieno[3,2-d]pyrimidine-4-carboxamide], at adenosine A2B receptor, the Ratio amounted to 10.26 and the IC50 was > 500 nM. In addition, the IC50 on adenosine A2A receptor is > 500 nM.

With `C[C@H](Nc1nc(C(=O)NCCNC(=O)C(C)(C)C)c2sccc2n1)c1cncc(F)c1` [Example Z537, (S)-2-((1-(5-Fluoropyridin-3-yl)ethyl)amino)-N-(2-pivalamidoethyl)thieno[3,2-d]pyrimidine-4-carboxamide], the Ratio on adenosine A2B receptor turned out to be 0.87. For the same molecule, the concentration for half-maximal inhibition (IC50) at adenosine A2B receptor and at adenosine A2A receptor was 100 to 500 nM each time.

On to `C[C@H](Nc1nc(C(=O)NCCNS(C)(=O)=O)c2sccc2n1)c1cncc(F)c1` [Example Z538, (S)-2-((1-(5-Fluoropyridin-3-yl)ethyl)amino)-N-(2-(methylsulfonamido)ethyl)thieno[3,2-d]pyrimidine-4-carboxamide], for which the Ratio at adenosine A2B receptor is 12.33. Moreover, the results for the IC50 at adenosine A2B receptor and at adenosine A2A receptor were 10 to 50 nM and > 500 nM, respectively.

Turning to `CC(=O)N1CC(CCNC(=O)c2nc(N[C@@H](C)c3cncc(F)c3)nc3ccsc23)C1` [Example Z539, (S)—N-(2-(1-Acetylazetidin-3-yl)ethyl)-2-((1-(5-fluoropyridin-3-yl)ethyl)amino)thieno[3,2-d]pyrimidine-4-carboxamide], the results for the IC50 at adenosine A2B receptor and on adenosine A2A receptor were 10 to 50 nM and 100 to 500 nM, respectively.

For the molecule `C[C@H](Nc1nc(C(=O)NC2CN(C(=O)C(C)(C)C)C2)c2sccc2n1)c1cncc(F)c1` [Example Z545, (S)-2-((1-(5-Fluoropyridin-3-yl)ethyl)amino)-N-(1-pivaloylazetidin-3-yl)thieno[3,2-d]pyrimidine-4-carboxamide], the half-inhibitory concentration (IC50) on adenosine A2B receptor and at adenosine A2A receptor was 100 to 500 nM in each case.

For the molecule `C[C@H](Nc1nc(C(=O)N2CC(C(=O)NCCO)C2)c2sccc2n1)c1cncc(F)c1` [Example Z547, (S)-1-(2-((1-(5-Fluoropyridin-3-yl)ethyl)amino)thieno[3,2-d]pyrimidine-4-carbonyl)-N-(2-hydroxyethyl)azetidine-3-carboxamide], at adenosine A2B receptor, the Ratio is recorded as 43.40 and the IC50 was in the range of 50 to 100 nM. Also, the IC50 on adenosine A2A receptor is > 500 nM.

Turning to `C[C@H](Nc1nc(C(=O)N2CCC(C(=O)NC(C)(C)C)C2)c2sccc2n1)c1cncc(F)c1` (stereo partly drawn) [Example Z548, N-(tert-Butyl)-1-(2-(((S)-1-(5-fluoropyridin-3-yl)ethyl)amino)thieno[3,2-d]pyrimidine-4-carbonyl)pyrrolidine-3-carboxamide], the IC50 at adenosine A2B receptor is 10 to 50 nM; at adenosine A2A receptor it was 100 to 500 nM.

`C[C@H](Nc1nc(C(=O)N2CC(CN(C)C(=O)CC(C)(C)C)C2)c2sccc2n1)c1cncc(F)c1` [Example Z550, (S)—N-((1-(2-((1-(5-Fluoropyridin-3-yl)ethyl)amino)thieno[3,2-d]pyrimidine-4-carbonyl)azetidin-3-yl)methyl)-N,3,3-trimethylbutanamide]: on adenosine A2B receptor, the Ratio was determined as 4.79 and the IC50 is 10 to 50 nM. The IC50 at adenosine A2A receptor fell in the range of 50 to 100 nM.

Regarding `COc1ccc([C@H](C)Nc2nc(C(=O)N3CC(NC(=O)OC(C)C)C3)c3sc(C)cc3n2)cc1` [Example Z555, Isopropyl (S)-(1-(2-((1-(4-methoxyphenyl)ethyl)amino)-6-methylthieno[3,2-d]pyrimidine-4-carbonyl)azetidin-3-yl)carbamate], on adenosine A2B receptor, the Ratio is given as 0.18 and the IC50 lay in the range of 100 to 500 nM. On adenosine A2A receptor, the IC50 is 50 to 100 nM.

In the case of `COc1ccc([C@H](C)Nc2nc(C(=O)N3CC(NC(C)=O)C3)c3sc(C)cc3n2)cc1` [Example Z556, (S)—N-(1-(2-((1-(4-Methoxyphenyl)ethyl)amino)-6-methylthieno[3,2-d]pyrimidine-4-carbonyl)azetidin-3-yl)acetamide], on adenosine A2B receptor, the Ratio was 0.22 and the IC50 lay in the range of 100 to 500 nM. On adenosine A2A receptor, the IC50 lay in the range of 50 to 100 nM.

As to `C[C@H](Nc1nc(C(=O)N2CC(C(N)=O)C2)c2sccc2n1)c1cncc(F)c1` [Example Z563, (S)-1-(2-((1-(5-Fluoropyridin-3-yl)ethyl)amino)thieno[3,2-d]pyrimidine-4-carbonyl)azetidine-3-carboxamide], at adenosine A2B receptor, the Ratio is given as 16.87 and the IC50 was in the range of 10 to 50 nM. The IC50 at adenosine A2A receptor was > 500 nM.

In general, IC50 refers to the midpoint of a concentration-inhibition curve.
